Tests used:
Colo320 cells = assay: Colo320 xenograft tumor growth; type: in vivo, NMRI-Foxn1^nu/nu mice
Method: Xenografts experiments were carried out in 4 weeks old female NMRI-Foxn1^nu/nu mice that were subcutaneously injected with Colo320 cells. For each tumor, 2 million cells were resuspended in Matrigel Matrix: PBS solution (1:1) (Corning, #354234) and 100 uL of volume was injected in the flanks of each mouse. Tumors were measured every other day using digital vernier caliper until the volume reached […]. At this point, they were sacrificed with CO2 and posterior cervical disruption. Tumors were isolated and frozen in -80°C for future analysis. For volume calculation, we used the formula V = ((LxW^2))/(2) [formula] in mm^3, were V = tumor volume, W = tumor width and L = tumor length.
To inhibit Mitochondrial Complex I in vivo, we employed IACS-010759 (Selleckchem, #S8731), a small-molecule inhibitor of complex I. IACS was dissolved in DMSO at a 10% concentration and then prepared for administration at 0.5% in Methyl cellulose (Sigma, #M0262). Each mouse received a dose of 10 mg/kg for five consecutive days via oral gavage.
We propose that sensitivity to OXPHOS inhibitors can be, at least in part, mediated by combined expression of the NADPH-producing enzymes G6PD and ME1. To test this hypothesis […], we correlated protein expression of G6PD and ME1 for hundreds of cell lines. […]

143B cells = assay: Time-course cell proliferation / survival of 143B cells; type: cell-based; conditions: 143B cells under combined Piericidin and G6PDi, supplemented
Method: All cell lines, 143b, HeLa, U2OS, and transmitochondrial cybrids carrying mutation in CI (ND2), CIII (CytB) or CIV (Cox2) subunits, were maintained in DMEM high glucose (HyClone), 10% FBS and 1% P/S at 37°C with 5% CO2. Mitochondrial mutant cells were cultured with supplementation of 50 µg/mL uridine. The selected cancer cell lines with different levels of malic enzyme (HCC15, KYSE410, CAKI1, J82, MDAMB453, Colo320, NCIH1703) were obtained from the DSMZ-German Collection of Microorganisms and Cell Cultures GmbH and cultured in the same DMEM 10% FBS medium. OCI-Lys3 and RCH-ACV cell lines (cells in suspension), were obtained from the same repository and cultured in RPMI 10% FBS medium. Transfections for gain- and loss-of-function studies were performed according to the manufacturer's instructions using the polyfect reagent (Qiagen, 301107). […] Subsequently, cells were trypsinized and quantified using a hemocytometer (NanoEnTek, DHC-N01). Cell viability was quantified using propidium iodide (PI; 50 µg/ml) staining.
Next, we conducted time-course experiments to gain further knowledge on the metabolic determinants underlying the observed synthetic lethality between PPP and OXPHOS. 143B cells were treated either with Piericidin or G6PDi (selective inhibitor of G6PD) alone or the combination of both and cell proliferation was quantified over the course of 96 h. […]

143B cell lines = assay: Cell viability of CRISPR knock-out 143B cell lines treated with ETC inhibitors; type: cell-based
Method: All cell lines, 143b, HeLa, U2OS, and transmitochondrial cybrids carrying mutation in CI (ND2), CIII (CytB) or CIV (Cox2) subunits, were maintained in DMEM high glucose (HyClone), 10% FBS and 1% P/S at 37°C with 5% CO2. Mitochondrial mutant cells were cultured with supplementation of 50 µg/mL uridine. The selected cancer cell lines with different levels of malic enzyme (HCC15, KYSE410, CAKI1, J82, MDAMB453, Colo320, NCIH1703) were obtained from the DSMZ-German Collection of Microorganisms and Cell Cultures GmbH and cultured in the same DMEM 10% FBS medium. OCI-Lys3 and RCH-ACV cell lines (cells in suspension), were obtained from the same repository and cultured in RPMI 10% FBS medium. Transfections for gain- and loss-of-function studies were performed according to the manufacturer's instructions using the polyfect reagent (Qiagen, 301107). For cell number and proliferation experiments, cells were seeded in 12 or 6-well plates and allowed to proliferate for the specified durations. Subsequently, cells were trypsinized and quantified using a hemocytometer (NanoEnTek, DHC-N01). Cell viability was quantified using propidium iodide (PI; 50 µg/ml) staining.
Generation of knockout cell lines using CRISPR-Cas9 technology was performed with the lenti-CRISPR v2 vector (Addgene #52961). Guide sequences are: • sgGFPT1, 5-[…]-3 (SEQ ID NO: 1); • sgG6PD, 5-[…]-3 (SEQ ID NO: 2); • sgPHGDH, 5-[…]-3 (SEQ ID NO: 3); • sgMPC1, 5-[…]-3 (SEQ ID NO: 4) • sgPC, 5-CAGGCCCGGAACACACGGA-3 (SEQ ID NO: 5); • sgACLY, 5-[…]-3 (SEQ ID NO: 6); • sgME1, 5-[…]-3 (SEQ ID NO: 7).
To investigate glucose-dependent alternative metabolic pathways that become essential upon ETC inhibition, we generated through CRISPR/Cas9 technology, knock-out (KO) 143B cell lines for each of the following rate-limiting enzymes and transporters. We selected glucose 6 phosphate dehydrogenase (G6PD) for the PPP, Glutamine-Fructose-6-Phosphate Transaminase 1 (GFPT1) for the hexosamine pathway, Phosphoglycerate Dehydrogenase (PHGDH) for the serine biosynthesis pathway and Mitochondrial Pyruvate Carrier 1 (MPC1) to prevent pyruvate entry into the mitochondria. These KO and Control cells were treated with two specific ETC inhibitors (Piericidin A that targets Complex I and Antimycin A that targets Complex III) and cell viability was assessed after 3 days of treatment. […] We took advantage of the fruit fly Drosophila melanogaster model, as it is cost- and time-efficient and recapitulate a wide range of phenotypes seen in patients with metabolic and mitochondrial disorders. We obtained flies carrying mutations in Zw and Pgd genes (named: Pgd^39 Zw^lo2a), corresponding to human orthologs G6PD and 6PGD respectively. […]

Cc1nc(-c2nc(-c3ccc(OC(F)(F)F)cc3)no2)nn1Cc1cccc(N2CCC(S(C)(=O)=O)CC2)c1 [IACS-010759]
effect on tumor size (Colo320 cells; Colo320 cells ectopically expressing ME1): completely lost
tumor size (Colo320 cells; Colo320 cells subcutaneous in nude mice, 10 mg/kg oral gavage): prominently reduced

N[C@@H](CCC(=O)N[C@@H](CS)C(=O)NCC(=O)O)C(=O)O [GSH]
cell death phenotype (143B cells): rescued

Antimycin A
cell viability (143B cell lines; G6PD KO 143B cells, after 3 days of treatment): sensitive
survival or proliferation (143B cell lines; KO cells for GFPT1, PHGDH or MPC1, after 3 days of treatment): no differences

From patent EP4653001A1, “TREATMENT, DIAGNOSIS AND/OR PROGNOSIS OF MITOCHONDRIAL DISEASES” (Universidad Autónoma de Madrid, priority 2024, dated 2025)
